Results from patent US20250179103A1, “6-OXODECAHYDROPYRROLO[1,2-A][1,5]DIAZOCINE AND 6-OXODECAHYDRO-4H-PYRROLO[2,1-D][1,5]THIAZOCINE DERIVATIVES AS STAT3 AND STAT6 MODULATORS FOR THE TREATMENT OF CANCER AND INFLAMMATORY CONDITIONS” (Recludix Pharma, Inc., priority 2022, published 2025).

Legend:
[1] = test system: pY705-STAT3 in Peripheral Blood Mononuclear Cells (PBMC); experiment: MSD-pSTAT-PBMC Assay (pSTAT3, IL-6 stimulated); type: cell-based, Human; conditions: compound 3 hrs, then 10 ng/mL IL-6 for 10 min
Excerpt: Cryopreserved Peripheral Blood Mononuclear Cells (PBMC) are from AllCells. Recombinant Human IL-4 and IL-6 are from Peprotech. Mouse monoclonal anti-STAT3 antibody, rabbit monoclonal anti-pY705-STAT3 antibody, rabbit monoclonal Anti-pY641-STAT6 antibody, and lysis buffer are from Cell Signaling Technology (CST). Mouse monoclonal anti-STAT6 antibody is from BioLegend. Assay plates, blocker, and anti-rabbit secondary antibody are from Meso Scale Discovery (MSD).
Cryopreserved PBMCs were thawed out and allowed to recover overnight in IMDM+10% heat-inactivated FBS prior to plating 50,000 (STAT3) or 25,000 (STAT6) cells per well in 96-well U-bottom tissue culture plates. Cells were treated with compound for 3 hrs, then stimulated with 10 ng/mL IL-6 (STAT3) or 1 ng/mL IL-4 (STAT6) for 10 min. Cells were then spun down and washed with ice-cold PBS prior to lysing the cell pellet with 1× lysis buffer (CST) with 1×HALT protease and phosphatase inhibitor cocktail (Thermo). Lysates were transferred to and incubated overnight at 4° C. with shaking in QuickPlex 96-well high bind assay plates (MSD) pre-coated overnight with 30 μL per well of 0.6 μg/mL mouse monoclonal anti-STAT3 antibody (STAT3) or 2 μg/mL mouse monoclonal anti-STAT6 antibody (STAT6) in 1×PBS, and pre-blocked for 1 hour with 3% Blocker-A (MSD). Captured protein in the assay plates were then washed and probed with 25 μL per well of 0.25 μg/ml rabbit monoclonal anti-pY705-STAT3 antibody (STAT3) or […] rabbit monoclonal Anti-pY641-STAT6 antibody (STAT6) in 1% Blocker-A for 1 hour at room temperature with shaking, then washed and probed with 25 ul per well of 1 ug/ml Sulfo-TAG Labeled Goat Anti-Rabbit Antibody (MSD) in 1% Blocker-A for 1 hour at room temperature with shaking. Assay plates were then washed and 150 μL of 1× Read Buffer-T (MSD) was added to each well prior to reading on an SQ120 MSD Plate Reader. Assay signal from each sample was subtracted by the signal from unstimulated control wells and normalized to DMSO control wells. IC50 values were calculated using Graph Pad Prism Dose-Response Nonlinear Regression with variable slope. For both pSTAT3 and pSTAT6 A=≤100 nM; B=>100-1000 nM; C=>1000-3000 nM; and D=>3 μM.

[2] = test system: pY641-STAT6 in Peripheral Blood Mononuclear Cells (PBMC); experiment: MSD-pSTAT-PBMC Assay (pSTAT6, IL-4 stimulated); type: cell-based, Human; conditions: compound 3 hrs, then 1 ng/mL IL-4 for 10 min
How it was run: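 Phospho-STAT readout used MSD electrochemiluminescence with total STAT3 or STAT6 capture in lysates of cryopreserved human PBMCs. Cells had 3 h compound exposure before a 10 min cytokine pulse: IL-6 10 ng/mL for pSTAT3, IL-4 1 ng/mL for pSTAT6. IC50 came from background-subtracted, DMSO-normalised signal, with categories A≤100 nM up to D>3 μM.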

CCN1CC[C@H]2CC[C@@H](C(=O)N3C[C@@H](C#N)[C@H](c4ccccc4)C3)N2C(=O)[C@@H](NC(=O)c2cc3cc(C(F)(F)P(=O)(OCCSC(=O)C(C)(C)C)OCCSC(=O)C(C)(C)C)ccc3s2)C1 (single isomer, unassigned) [Compound 330, S,S′-(((((2-(((5S,8S,10aR)-8-((3S,4R or 3R,4S)-3-cyano-4-phenylpyrrolidine-1-carbonyl)-3-ethyl-6-oxodecahydropyrrolo[1,2-a][1,5]diazocin-5-yl)carbamoyl)benzo[b]thiophen-5-yl)difluoromethyl)phosphoryl)bis(oxy))bis(ethane-2,1-diyl)) bis(2,2-dimethylpropanethioate)]
IC50 ([1]; Homo sapiens): 1000 to 3000 nM | IC50 ([2]; Homo sapiens): 1000 to 3000 nM

CCN1CC[C@H]2CC[C@@H](C(=O)N3C[C@@H](C#N)[C@H](c4ccccc4)C3)N2C(=O)[C@@H](NC(=O)c2cc3cc([C@H](F)P(=O)(OCCSC(=O)CC(C)C)OCCSC(=O)CC(C)C)ccc3s2)C1 (single isomer, unassigned) [Compound 339, S,S′-(((((R or S)-(2-(((5S,8S,10aR)-8-((3S,4R or 3R,4S)-3-cyano-4-phenylpyrrolidine-1-carbonyl)-3-ethyl-6-oxodecahydropyrrolo[1,2-a][1,5]diazocin-5-yl)carbamoyl)benzo[b]thiophen-5-yl)fluoromethyl)phosphoryl)bis(oxy))bis(ethane-2,1-diyl))bis(3-methylbutane thioate)]
IC50 ([1]; Homo sapiens): 1000 to 3000 nM | IC50 ([2]; Homo sapiens): 100 to 1000 nM

CC(C)(C)C(=O)SCCOP(=O)(OCCSC(=O)C(C)(C)C)C(F)(F)c1ccc2ccc(C(=O)N[C@H]3CN(CC(F)F)CC[C@H]4CC[C@@H](C(=O)N5C[C@@H](C#N)[C@H](c6ccccc6)C5)N4C3=O)cc2c1 (single isomer, unassigned) [Compound 342, S,S′-(((((7-(((5S,8S,10aR)-8-((3S,4R or 3R,4S)-3-cyano-4-phenylpyrrolidine-1-carbonyl)-3-(2,2-difluoroethyl)-6-oxodecahydropyrrolo[1,2-a][1,5]diazocin-5-yl)carbamoyl)naphthalen-2-yl)difluoromethyl)phosphoryl)bis(oxy))bis (ethane-2,1-diyl))bis(2,2-dimethylprop anethioate)]
IC50 ([1]; Homo sapiens): > 3000 nM | IC50 ([2]; Homo sapiens): 100 to 1000 nM

CCN1CC[C@H]2CC[C@@H](C(=O)N3C[C@@H](C#N)[C@H](c4ccccc4)C3)N2C(=O)[C@@H](NC(=O)c2ccc3ccc(C(F)(F)P(=O)(OCCSC(=O)C(C)(C)C)OCCSC(=O)C(C)(C)C)cc3c2)C1 (single isomer, unassigned) [Compound 343, S,S′-(((((7-(((5S,8S,10aR)-8-((3S,4R or 3R,4S)-3-cyano-4-phenylpyrrolidine-1-carbonyl)-3-ethyl-6-oxodecahydropyrrolo[1,2-a][1,5]diazocin-5-yl)carbamoyl)naphthalen-2-yl)difluoromethyl)phosphoryl)bis(oxy))bis(ethane-2,1-diyl))bis(2,2-dimethylpropanethioate)]
IC50 ([1]; Homo sapiens): 1000 to 3000 nM | IC50 ([2]; Homo sapiens): 100 to 1000 nM

CC(C)(C)C(=O)OCOP(=O)(OCOC(=O)C(C)(C)C)C(F)(F)c1ccc2ccc(C(=O)N[C@H]3CN(CC(F)F)CC[C@H]4CC[C@@H](C(=O)N5C[C@@H](C#N)[C@H](c6ccccc6)C5)N4C3=O)cc2c1 (single isomer, unassigned) [Compound 346]
IC50 ([1]; Homo sapiens): 100 to 1000 nM | IC50 ([2]; Homo sapiens): ≤ 100 nM

CC(C)(C)C(=O)OCOP(=O)(OCOC(=O)C(C)(C)C)C(F)(F)c1ccc2sc(C(=O)N[C@H]3CN(CC(F)F)CC[C@H]4CC[C@@H](C(=O)N5C[C@@H](C#N)[C@H](c6ccccc6)C5)N4C3=O)cc2c1 (single isomer, unassigned) [Compound 348, ((((2-(((5S,8S,10aR)-8-((3S,4R or 3R,4S)-3-cyano-4-phenylpyrrolidine-1-carbonyl)-3-(2,2-difluoroethyl)-6-oxodecahydropyrrolo[1,2-a][1,5]diazocin-5-yl)carbamoyl)benzo[b]thiophen-5-yl)difluoromethyl)phosphoryl)bis (oxy)) bis(methylene) bis(2,2-dimethylpropanoate)]
IC50 ([1]; Homo sapiens): ≤ 100 nM | IC50 ([2]; Homo sapiens): ≤ 100 nM

CC(=O)N1CCC2CCC(C(=O)N3CC(c4ccccc4)CC34CC4)N2C(=O)C(NC(=O)c2ccc3ccc(C(F)(F)P(=O)(OCCSC(=O)CC(C)C)OCCSC(=O)CC(C)C)cc3c2)C1 [Compound 1, S,S′-(((((7-(((5S,8S,10aR)-3-acetyl-6-oxo-8-(6-phenyl-4-azaspiro[2.4]heptane-4-carbonyl)decahydropyrrolo[1,2-a][1,5]diazocin-5-yl)carbamoyl)naphthalen-2-yl)difluoromethyl)phosphoryl)bis(oxy))bis(ethane-2,1-diyl)) bis(3-methylbutanethioate)]
IC50 [1]: > 3000 nM | IC50 [2]: 100 to 1000 nM

CNC(=O)C[C@@H](Cc1ccc(OC)cc1)NC(=O)[C@@H]1CC[C@@H]2CCN(C(=O)c3n[nH]c4ccc(C)cc34)C[C@H](NC(=O)c3ccc4ccc(C(F)(F)P(=O)(O)O)cc4c3)C(=O)N21 [Compound 239, (difluoro(7-(((5S,8S,10aR)-8-(((R)-1-(4-methoxyphenyl)-4-(methylamino)-4-oxobutan-2-yl)carbamoyl)-3-(5-methyl-1H-indazole-3-carbonyl)-6-oxodecahydropyrrolo[1,2-a][1,5]diazocin-5-yl)carbamoyl)naphthalen-2-yl)methyl)phosphonic acid]
IC50 ([1]; Homo sapiens): 100 to 1000 nM | IC50 ([2]; Homo sapiens): 100 to 1000 nM

CCCC(=O)SCCOP(=O)(OCCSC(=O)CCC)C(F)(F)c1ccc2sc(C(=O)N[C@H]3CN(C(C)=O)CC[C@H]4CC[C@@H](C(=O)N(C)c5ccccc5)N4C3=O)cc2c1 [Compound 280, S,S′-(((((2-(((5S,8S, 10aR)-3-acetyl-8-(methyl (phenyl)carbamoyl)-6-oxodecahydro-pyrrolo[1,2-a][1,5]diazocin-5-yl)carbamoyl)benzo[b]thiophen-5-yl)difluoro-methyl)phos-phoryl)bis (oxy))bis (ethane-2,1-diyl))di-butanethioate]
IC50 ([1]; Homo sapiens): 1000 to 3000 nM | IC50 ([2]; Homo sapiens): 100 to 1000 nM

COCCOC(=O)OCOP(=O)(OCOC(=O)OCCOC)C(F)(F)c1ccc2sc(C(=O)N[C@H]3CN(C(C)=O)CC[C@H]4CC[C@@H](C(=O)N(C)c5ccccc5)N4C3=O)cc2c1 [Compound 283, ((((2-(((5S,8S, 10aR)-3-acetyl-8-(methyl (phenyl)carbamoyl)-6-oxodecahydro-pyrrolo[1,2-a][1,5]diazocin-5-yl)carbamoyl)benzo[b]thiophen-5-yl)difluoro-methyl)phos-phoryl)bis(oxy)) bis(methylene) bis(2-methoxyethyl) bis(carbonate)]
IC50 ([1]; Homo sapiens): > 3000 nM | IC50 ([2]; Homo sapiens): 1000 to 3000 nM

CC(=O)N1CC[C@H]2CC[C@@H](C(=O)N(C)c3ccccc3)N2C(=O)[C@@H](NC(=O)c2cc3cc(C(F)(F)P(=O)(OCOC(=O)OCC(C)C)OCOC(=O)OCC(C)C)ccc3s2)C1 [Compound 284, ((((2-(((5S,8S, 10aR)-3-acetyl-8-(methyl (phenyl)carbamoyl)-6-oxodecahydro-pyrrolo[1,2-a][1,5]diazocin-5-yl)carbamoyl)benzo[b]thiophen-5-yl)difluoro-methyl)phos-phoryl)bis(oxy)) bis(methylene) diisobutyl bis(carbonate)]
IC50 ([1]; Homo sapiens): 100 to 1000 nM | IC50 ([2]; Homo sapiens): ≤ 100 nM

CCCOC(=O)OCOP(=O)(OCOC(=O)OCCC)C(F)(F)c1ccc2sc(C(=O)N[C@H]3CN(C(C)=O)CC[C@H]4CC[C@@H](C(=O)N(C)c5ccccc5)N4C3=O)cc2c1 [Compound 286, ((((2-(((5S, 8S,10aR)-3-acetyl-8-(methyl (phenyl)carbamoyl)-6-oxodecahydro-pyrrolo[1,2-a][1,5]diazocin-5-yl)carbamoyl)benzo[b]thiophen-5-yl)difluoro-methyl)phosphoryl)bis(oxy)) bis(methylene) dipropyl bis(carbonate)]
IC50 ([1]; Homo sapiens): 100 to 1000 nM | IC50 ([2]; Homo sapiens): 100 to 1000 nM
